Test results from the supplement of paper PMC10307832.

Compound: Cc1ccc(NC(=O)c2ccc(CN3CCN(C)CC3)cc2)cc1Nc1nc(-c2cccnc2)cs1 [Masitinib] + Cc1cc(Nc2cc(N3CCN(C)CC3)nc(Sc3ccc(NC(=O)C4CC4)cc3)n2)n[nH]1 [Tozasertib] (partner 0.1 µM)
Assay: relative viability (nuclei count vs DMSO), 5 days (fraction); higher = more cells survive
Conditions: first compound 1 µM
How it was run: (§1)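 Dosing by pin tool came one day after lung cancer cell lines were seeded in 1536-well plates, using either one drug or a fixed anchor-drug dose plus five library-drug doses (not always all listed) in √10 steps. After 5 days, nuclei were counted on 4× images. Relative viability is treated-well nuclei count divided by vehicle-well nuclei count, and values are medians of duplicate plates.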

Point of comparison: HCC-78, relative viability 0.454. Against it:
- NCI-H1648 — lower, 0.431

Compound: CC1=CC(=CC=C1)NC2=NC(=CS2)C3=CC=NC=C3 + Cc1nc(Nc2ncc(C(=O)Nc3c(C)cccc3Cl)s2)cc(N2CCN(CCO)CC2)n1 [Dasatinib] (partner 0.075 µM)
Assay: as above
Conditions: first compound 0.08 µM
How it was run: as §1

Point of comparison: NCI-H358, relative viability 0.214. Against it:
- NCI-H522 — higher, 0.851
- NCI-H1623 — higher, 0.525
- NCI-H838 — higher, 0.233
- NCI-H1651 — higher, 0.26
- NCI-H1734 — higher, 0.471
- NCI-H2009 — higher, 0.249
- LU99A — higher, 0.543
- PC-14 — higher, 0.237
- LCLC-103H — higher, 0.517
- NCI-H596 — higher, 0.501
- NCI-H2228 — higher, 0.402
- EMC-BAC-2 — higher, 0.279
- NCI-H2087 — higher, 0.67
- HCC-366 — higher, 0.543
- NCI-H647 — lower, 0.17
- NCI-H2126 — higher, 0.533
- NCI-H2342 — higher, 0.306
- NCI-H1793 — higher, 0.343
- H3255 — higher, 0.397
- COR-L23 — higher, 0.479
- COR-L 105 — higher, 0.284
- LOU-NH91 — higher, 0.464
- ChaGo-K-1 — higher, 0.547
- NCI-H3122 — higher, 0.78
- HOP-62 — higher, 0.52
- SW 900 — higher, 0.358
- LXF-289 — lower, 0.194
- BEN — higher, 0.304
- NCI-H1563 — higher, 0.48
- NCI-H1792 — higher, 0.689

Same assay, conditions: first compound 0.253 µM

Point of comparison: NCI-H3122, relative viability 0.821. Against it:
- NCI-H522 — lower, 0.792
- NCI-H1623 — lower, 0.506
- NCI-H838 — lower, 0.248
- NCI-H1651 — lower, 0.377
- NCI-H1734 — lower, 0.435
- NCI-H2009 — lower, 0.308
- LU99A — lower, 0.525
- PC-14 — lower, 0.247
- LCLC-103H — lower, 0.44
- NCI-H596 — lower, 0.507
- NCI-H2228 — lower, 0.605
- EMC-BAC-2 — lower, 0.312
- NCI-H2087 — lower, 0.804
- HCC-366 — lower, 0.567
- NCI-H647 — lower, 0.172
- LK-2 — lower, 0.241
- NCI-H2126 — lower, 0.433
- NCI-H2342 — lower, 0.303
- NCI-H1793 — lower, 0.365
- H3255 — lower, 0.347
- COR-L23 — lower, 0.511
- COR-L 105 — lower, 0.289
- LOU-NH91 — lower, 0.51
- ChaGo-K-1 — lower, 0.675
- NCI-H358 — lower, 0.173
- HOP-62 — lower, 0.605
- SW 900 — lower, 0.477
- LXF-289 — lower, 0.214
- BEN — lower, 0.273
- HCC-78 — lower, 0.376
- NCI-H1563 — lower, 0.41

Same assay, conditions: first compound 0.8 µM

Point of comparison: NCI-H596, relative viability 0.584. Against it:
- NCI-H522 — higher, 0.933
- NCI-H1623 — higher, 0.625
- NCI-H838 — lower, 0.244
- NCI-H1651 — lower, 0.553
- NCI-H1734 — lower, 0.491
- NCI-H2009 — lower, 0.264
- LU99A — lower, 0.521
- PC-14 — lower, 0.27
- LCLC-103H — lower, 0.41
- NCI-H2228 — lower, 0.468
- EMC-BAC-2 — lower, 0.293
- NCI-H2087 — higher, 0.742
- HCC-366 — higher, 0.625
- NCI-H647 — lower, 0.195
- LK-2 — lower, 0.421
- NCI-H2126 — lower, 0.505
- NCI-H2342 — lower, 0.302
- NCI-H1793 — lower, 0.454
- H3255 — lower, 0.489
- COR-L23 — lower, 0.389
- COR-L 105 — lower, 0.349
- LOU-NH91 — lower, 0.432
- ChaGo-K-1 — higher, 0.605
- NCI-H358 — lower, 0.182
- NCI-H3122 — higher, 1.05
- HOP-62 — lower, 0.527
- SW 900 — lower, 0.527
- LXF-289 — lower, 0.224
- BEN — lower, 0.364
- HCC-78 — lower, 0.398
- NCI-H1563 — lower, 0.498
- NCI-H1792 — higher, 0.832

Same assay, conditions: first compound 2.53 µM

Point of comparison: NCI-H2087, relative viability 0.778. Against it:
- NCI-H522 — higher, 0.809
- NCI-H1623 — lower, 0.521
- NCI-H838 — lower, 0.293
- NCI-H1651 — lower, 0.385
- NCI-H1734 — lower, 0.503
- NCI-H2009 — lower, 0.299
- LU99A — lower, 0.517
- PC-14 — lower, 0.225
- LCLC-103H — lower, 0.386
- NCI-H596 — lower, 0.524
- NCI-H2228 — lower, 0.433
- EMC-BAC-2 — lower, 0.306
- HCC-366 — lower, 0.48
- NCI-H647 — lower, 0.148
- NCI-H2126 — lower, 0.466
- NCI-H2342 — lower, 0.278
- NCI-H1793 — lower, 0.459
- H3255 — lower, 0.341
- COR-L23 — lower, 0.338
- COR-L 105 — lower, 0.279
- LOU-NH91 — lower, 0.472
- ChaGo-K-1 — lower, 0.49
- NCI-H358 — lower, 0.185
- NCI-H3122 — higher, 0.819
- HOP-62 — lower, 0.594
- SW 900 — lower, 0.615
- LXF-289 — lower, 0.183
- BEN — lower, 0.222
- HCC-78 — lower, 0.379
- NCI-H1563 — lower, 0.404
- NCI-H1792 — lower, 0.54

Same assay, conditions: first compound 8 µM

Point of comparison: NCI-H2087, relative viability 0.796. Against it:
- NCI-H522 — higher, 0.983
- NCI-H1623 — lower, 0.575
- NCI-H838 — lower, 0.267
- NCI-H1651 — lower, 0.415
- NCI-H1734 — lower, 0.538
- NCI-H2009 — lower, 0.312
- LU99A — lower, 0.479
- PC-14 — lower, 0.178
- LCLC-103H — lower, 0.385
- NCI-H596 — lower, 0.435
- NCI-H2228 — lower, 0.445
- EMC-BAC-2 — lower, 0.332
- HCC-366 — lower, 0.365
- NCI-H647 — lower, 0.196
- LK-2 — lower, 0.327
- NCI-H2126 — lower, 0.4
- NCI-H2342 — lower, 0.311
- NCI-H1793 — lower, 0.356
- H3255 — lower, 0.528
- COR-L23 — lower, 0.402
- COR-L 105 — lower, 0.306
- LOU-NH91 — lower, 0.458
- ChaGo-K-1 — lower, 0.54
- NCI-H358 — lower, 0.263
- NCI-H3122 — lower, 0.77
- HOP-62 — lower, 0.449
- SW 900 — lower, 0.383
- LXF-289 — lower, 0.159
- BEN — lower, 0.327
